Columns and labels:
[1] = biological target: alpha9/alpha10 nicotinic receptor (Rattus norvegicus, UniProt P43144+Q9JLB5); settings: Plazas, et al., Eur J Pharmacol., 2007; cited from earlier work
[2] = test system: subjects with subjective tinnitus of at least moderate severity; assay: Double-blind placebo-controlled pilot trial of neramexane in tinnitus: TBF-12; format: in vivo, human; settings: final daily doses of 50 or 75 mg, after 16-week double-blind treatment (Visit 6); distinct from placebo or low-dose (25 mg)
Protocol: (§1) The objective of this pilot project was to conduct a clinical trial to assess the efficacy of neramexane as a treatment for tinnitus. The primary objective of this study was to compare the efficacy, tolerability and safety of neramexane mesylate at three different dosages (25, 50 or 75 mg/d) with placebo in subjects with subjective tinnitus of at least moderate severity.
(§2) In a double-blind, multicenter, randomized, placebo-controlled, parallel-group study, the efficacy of neramexane in subjects suffering from tinnitus of at least moderate severity was assessed. Approximately 100 patients, who fulfilled particular inclusion criteria and met none of particular exclusion criteria, were randomized to each of four double-blind treatment groups (neramexane mesylate 25, 50, 75 mg/d or placebo), resulting in approximately 400 patients in total.
The double-blind, 16-week treatment period consisted of a 4-week uptitration period and a 12-week fixed-dose treatment period at unchanged maintenance b.i.d. dosing. In case of poor tolerability, however, the investigator could consider a dose reduction by 25 mg/d (or placebo, respectively). […]
Visit 1 (screening): After signing the consent form, the subject underwent a physical examination and clinical laboratory testing. Patient eligibility for the study was evaluated via a check of inclusion/exclusion criteria. […]

[3] = test system: subjects with subjective tinnitus of at least moderate severity; assay: Double-blind placebo-controlled pilot trial of neramexane in tinnitus: question 12/5 (sleep item) of the structured tinnitus interview; format: in vivo, human; settings: for TI Sleep item 12/5: Prevented (%) / TI Sleep item 12/5: Prevented n / TI Sleep item 12/5: affected (%) / TI Sleep item 12/5: affected n / TI Sleep item 12/5: no effect (%) / TI Sleep item 12/5: no effect n: ITT-OC
Protocol: as §1, §2
The double-blind, 16-week treatment period consisted of a 4-week uptitration period and a 12-week fixed-dose treatment period at unchanged maintenance b.i.d. dosing. In case of poor tolerability, however, the investigator could consider a dose reduction by 25 mg/d (or placebo, respectively). After the treatment phase, there was a 4-week follow-up period with no active treatment and concomitant therapy restrictions. In total, this study involved seven study visits: screening, baseline, and at the end of weeks 4, 8, 12, 16, and 20.
Visit 2 (baseline): The subject was asked about adverse events and changes in concomitant medication/disease, which events/changes were documented. The subject was evaluated for study eligibility based on a review of the inclusion/exclusion criteria. Trial procedures as well as allowed and forbidden concomitant medications were reviewed with the subject. An initial Tinnitus Interview was conducted. The subject also completed a TBF-12, HADS-D Questionnaire and GÜF Questionnaire (if applicable). The subject was enrolled in the study and study medication (placebo or neramexane) was dispensed as described below.
Visit 6 (Week 16, end of treatment). This visit occurred at the end of the 12-week fixed-dose double-blind treatment period. The subject was asked about adverse events and changes in concomitant medication/disease, which changes are documented. A clinical laboratory evaluation was performed. A follow-up Tinnitus Interview was conducted, and the subject completed a TBF-12, HADS-D Questionnaire and GÜF Questionnaire (if applicable). Pure-tone audiometry (air conduction) was also conducted.
Visit 7 (Week 20): This visit occurred at the end of the 4-week follow-up period after the last study medication dose. Review of concomitant medications as well as the occurrence of adverse events since the last visit is conducted with subject. A follow-up Tinnitus Interview was conducted, and the subject completed a TBF-12, HADS-D Questionnaire and GÜF Questionnaire (if applicable).
Neramexane mesylate immediate release tablets (12.5 mg and 25 mg) and matching placebo tablets were administered as film coated tablets.
Study medication was dispensed at Visit 2 (baseline, day, 0). Each patient received one blister box containing 5 blister cards (including one reserve blister) of double-blind study medication (i.e., 32 tablets). Subjects were instructed to take 2 tablets twice daily (4 tablets/d), beginning the day after dispensing of the study medication, until they returned for their next study visit (Visit 3). For those subjects assigned to receive active medication, some placebo tablets were incorporated into the dosing regimen to ensure blinding during the uptitration period. The target fixed-maintenance dose of 25, 50, or 75 mg neramexane mesylate/d was administered starting with the fifth week of double-blind treatment and was continued throughout the study. […]

[4] = Follow-Up (Change from Baseline), 25 mg/d, N = 100
[5] = Follow-Up (Change from Baseline), 50 mg/d, N = 95
[6] = Follow-Up (Change from Baseline), 75 mg/d, N = 89
[7] = Week 16 Visit (Change from Baseline), 25 mg/d, N = 89
[8] = Week 16 Visit (Change from Baseline), 50 mg/d, N = 80
[9] = Week 16 Visit (Change from Baseline), 75 mg/d, N = 64

alpha9/alpha10 nicotinic receptor, sequence (P43144 26-479): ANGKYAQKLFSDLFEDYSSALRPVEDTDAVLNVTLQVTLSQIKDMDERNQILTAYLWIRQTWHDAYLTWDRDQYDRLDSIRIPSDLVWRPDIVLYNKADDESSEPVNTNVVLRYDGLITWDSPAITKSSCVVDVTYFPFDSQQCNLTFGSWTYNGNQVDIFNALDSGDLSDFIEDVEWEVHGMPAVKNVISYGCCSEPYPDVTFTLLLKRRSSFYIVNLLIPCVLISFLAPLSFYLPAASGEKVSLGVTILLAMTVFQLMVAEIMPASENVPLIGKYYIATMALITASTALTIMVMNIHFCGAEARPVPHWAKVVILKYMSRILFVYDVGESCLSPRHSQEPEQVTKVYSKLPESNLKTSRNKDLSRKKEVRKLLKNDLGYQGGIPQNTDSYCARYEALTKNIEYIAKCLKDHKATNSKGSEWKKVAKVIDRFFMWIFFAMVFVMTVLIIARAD
alpha9/alpha10 nicotinic receptor, sequence (Q9JLB5 25-447): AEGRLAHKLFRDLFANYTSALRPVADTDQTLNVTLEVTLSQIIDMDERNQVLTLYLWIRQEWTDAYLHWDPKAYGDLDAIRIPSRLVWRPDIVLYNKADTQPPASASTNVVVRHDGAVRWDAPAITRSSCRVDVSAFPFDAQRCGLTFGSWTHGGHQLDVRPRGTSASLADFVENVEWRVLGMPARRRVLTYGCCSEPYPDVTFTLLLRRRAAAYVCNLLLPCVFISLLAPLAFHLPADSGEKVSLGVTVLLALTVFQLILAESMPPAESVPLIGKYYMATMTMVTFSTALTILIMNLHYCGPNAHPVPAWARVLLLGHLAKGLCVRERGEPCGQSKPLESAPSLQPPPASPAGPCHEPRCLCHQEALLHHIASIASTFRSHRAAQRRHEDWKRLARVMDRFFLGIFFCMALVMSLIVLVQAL

## CC1(C)CC(C)(C)CC(C)(N)C1 [Neramexane, 1-amino-1,3,3,5,5-pentamethylcyclohexane]
[1]
  activity at alpha9/alpha10 nicotinic receptor: activity as an alpha9/alpha10 nicotinic receptor antagonist
[2]
  improvement of tinnitus as measured by the TBF-12: clear improvement of their tinnitus
[3]; Baseline, 25 mg/d, N = 106
  TI Sleep item 12/5: Prevented (%): 12.3%
  TI Sleep item 12/5: Prevented n: 13
  TI Sleep item 12/5: affected (%): 64.2%
  TI Sleep item 12/5: affected n: 68
  TI Sleep item 12/5: no effect (%): 23.6%
  TI Sleep item 12/5: no effect n: 25
[3]; Baseline, 50 mg/d, N = 106
  TI Sleep item 12/5: Prevented (%): 6.6%
  TI Sleep item 12/5: Prevented n: 7
  TI Sleep item 12/5: affected (%): 66.0%
  TI Sleep item 12/5: affected n: 70
  TI Sleep item 12/5: no effect (%): 27.4%
  TI Sleep item 12/5: no effect n: 29
[3]; Baseline, 75 mg/d, N = 99
  TI Sleep item 12/5: Prevented (%): 8.1%
  TI Sleep item 12/5: Prevented n: 8
  TI Sleep item 12/5: affected (%): 68.7%
  TI Sleep item 12/5: affected n: 68
  TI Sleep item 12/5: no effect (%): 23.2%
  TI Sleep item 12/5: no effect n: 23
[3]; [4]
  TI Sleep item 12/5: Prevented (%): 3.0%
  TI Sleep item 12/5: Prevented n: 3
  TI Sleep item 12/5: affected (%): 65.0%
  TI Sleep item 12/5: affected n: 65
  TI Sleep item 12/5: no effect (%): 32.0%
  TI Sleep item 12/5: no effect n: 32
[3]; [5]
  TI Sleep item 12/5: Prevented (%): 1.1%
  TI Sleep item 12/5: Prevented n: 1
  TI Sleep item 12/5: affected (%): 57.9%
  TI Sleep item 12/5: affected n: 55
  TI Sleep item 12/5: no effect (%): 41.1%
  TI Sleep item 12/5: no effect n: 39
[3]; [6]
  TI Sleep item 12/5: Prevented (%): 3.4%
  TI Sleep item 12/5: Prevented n: 3
  TI Sleep item 12/5: affected (%): 57.3%
  TI Sleep item 12/5: affected n: 51
  TI Sleep item 12/5: no effect (%): 39.3%
  TI Sleep item 12/5: no effect n: 35
[3]; [7]
  TI Sleep item 12/5: Prevented (%): 2.2%
  TI Sleep item 12/5: Prevented n: 2
  TI Sleep item 12/5: affected (%): 65.2%
  TI Sleep item 12/5: affected n: 58
  TI Sleep item 12/5: no effect (%): 32.6%
  TI Sleep item 12/5: no effect n: 29
[3]; [8]
  TI Sleep item 12/5: Prevented (%): 1.3%
  TI Sleep item 12/5: Prevented n: 1
  TI Sleep item 12/5: affected (%): 48.8%
  TI Sleep item 12/5: affected n: 39
  TI Sleep item 12/5: no effect (%): 50.0%
  TI Sleep item 12/5: no effect n: 40
[3]; [9]
  TI Sleep item 12/5: Prevented (%): 6.3%
  TI Sleep item 12/5: Prevented n: 4
  TI Sleep item 12/5: affected (%): 50.0%
  TI Sleep item 12/5: affected n: 32
  TI Sleep item 12/5: no effect (%): 43.8%
  TI Sleep item 12/5: no effect n: 28
[3]; final daily doses of 50 or 75 mg, after 16 weeks of double-blind treatment, distinct from placebo or low-dose (25 mg)
  improvement of sleep, question 12/5 of the structured tinnitus interview: clear improvement of their sleep
